# Laboratory results taken from patent publication US20240082406A1, “BENZOHETEROCYCLE SUBSTITUTED TETRAHYDROISOQUINOLINE COMPOUND” (SHANGHAI JEMINCARE PHARMACEUTICAL CO., LTD, priority 2020, published 2024).
# Where a name gives a salt, the structure may show the parent alone.
# How the values were obtained:
# NHE3 [1] = biological target: T1, NHE3 (UniProt P48764); assay: Cell-based NHE3 activity under transient conditions (BCECF-AM intracellular pH, FLIPR); design: species or system Rat or Human; conditions: opossum kidney cells expressing NHE3, read-out: Cell-based NHE3 inhibition IC50 (uM) under transient conditions
# T1 sequence (P48764 1-834): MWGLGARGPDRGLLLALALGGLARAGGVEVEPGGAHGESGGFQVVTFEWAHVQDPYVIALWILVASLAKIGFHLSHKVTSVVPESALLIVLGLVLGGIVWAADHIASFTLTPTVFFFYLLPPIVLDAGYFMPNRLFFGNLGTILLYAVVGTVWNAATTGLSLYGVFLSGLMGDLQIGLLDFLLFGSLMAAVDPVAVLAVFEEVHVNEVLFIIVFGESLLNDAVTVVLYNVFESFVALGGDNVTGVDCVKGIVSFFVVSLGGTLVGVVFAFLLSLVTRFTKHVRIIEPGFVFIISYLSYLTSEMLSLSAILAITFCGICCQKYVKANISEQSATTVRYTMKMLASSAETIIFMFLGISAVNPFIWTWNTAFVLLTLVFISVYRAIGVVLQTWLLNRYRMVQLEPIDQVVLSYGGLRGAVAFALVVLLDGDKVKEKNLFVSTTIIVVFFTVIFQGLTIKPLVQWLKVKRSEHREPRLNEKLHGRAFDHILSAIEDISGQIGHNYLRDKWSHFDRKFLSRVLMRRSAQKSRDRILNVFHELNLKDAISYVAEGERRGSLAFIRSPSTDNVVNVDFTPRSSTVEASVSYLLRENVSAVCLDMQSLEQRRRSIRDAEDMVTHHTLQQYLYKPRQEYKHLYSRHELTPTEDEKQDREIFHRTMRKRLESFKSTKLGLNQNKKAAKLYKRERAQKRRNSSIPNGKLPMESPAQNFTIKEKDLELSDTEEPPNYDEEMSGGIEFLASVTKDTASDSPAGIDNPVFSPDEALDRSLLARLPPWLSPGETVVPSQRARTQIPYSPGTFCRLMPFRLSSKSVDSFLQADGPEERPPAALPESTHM
# From the text: (§1) Opossum kidney (OK) cells were obtained from ATCC and cultured and expanded according to its instructions. OK monoclonal stable cell lines expressing the Rat NHE3 (Gene Bank registration number: M85300) protein and OK monoclonal stable cell lines expressing the Human NHE3 (Gene Bank registration number: NM_004174.1) protein were constructed by lentivirus infection.
# The general procedure of the cell-based NHE3 activity experiments under transient conditions (transient inhibition) was based on an adaptation method of the pH-sensitive dye method originally reported by Tisen (Proc. Natl. Acad. Sci. USA) (1984) 81(23):7436-7440) to measure rat NHE3-mediated Na+-dependent reverse H+ transport, and was optimized according to the instructions “Measuring Intracellular pH With the FLIPR and FLIPR 384 Fluorometric Imaging Plate Reader Systems” published by Molecular Devices. The specific method was: Rat NHE3 OK monoclonal cells or Human NHE3 OK monoclonal cells were inoculated into 384-well plates and grew overnight. The medium was aspirated from the wells and the cells were washed twice with FLIPR buffer (Hank's BSS 1×, 20 mM HEPES, 1% BSA) followed by incubation with FLIPR buffer (Hank's BSS 1×, 20 mM HEPES, 1% BSA) containing […] BCECF-AM (Invitrogen) for 45 min at room temperature. Subsequently, […] of 200 mM NH4Cl-HEPES buffer (Hank's BSS 1×, 20 mM HEPES, 200 mM NH4Cl) was added and the cells were incubated for 15-20 minutes at room temperature. Cells were washed twice with 20 mM NH4Cl-HEPES buffer (Hank's BSS 1×, 20 mM HEPES, 20 mM NH4Cl). NHE3-mediated pH sensitization in cells was normalized by addition of containing 0.4 mM amiloride (EIPA) and […] test compound or Na-HEPES buffer (100 mM NaCl, 50 mM HEPES, 10 mM glucose, 5 mM KCl, 2 mM CaCl2), 1 mM MgCl2, pH 7.4) and monitoring of BCECF-AM fluorescence at λem 535 nm excitated by λex 440 nm and λex 490 nm respectively. Ratio=fluorescence value (λex 490 nm)/fluorescence value (λex 440 nm) was set, the average value of the Ratio difference between the end time and the start time between the duplicate wells was calculated, the average value and the concentration value of the compound were drawn, and Graphpad Prism software was used to estimate IC50 value.
# NHE3 [2] = biological target: T1, NHE3; assay: Cell-based NHE3 activity under persistent conditions (60 min pre-incubation, compound removed); design: species or system Rat or Human; conditions: opossum kidney cells expressing NHE3, read-out: Cell-based NHE3 inhibition IC50 (uM) under persistent conditions
# From the text: as §1
# The general procedure of the cell-based NHE3 activity assay under persistent conditions (persistent inhibition) was: Rat NHE3 OK monoclonal cells or Human NHE3 OK monoclonal cells were inoculated into 384-well plates and grew overnight. The medium was aspirated from the wells and the cells were washed twice with FLIPR buffer (Hank's BSS 1×, 20 mM HEPES, 1% BSA) followed by the addition of Na-HEPES buffer containing […] test compound (100 mM NaCl, 50 mM HEPES, 10 mM glucose, 5 mM KCl, 2 mM CaCl2, 1 mM MgCl2, pH 7.4) and incubated for 60 minutes at room temperature. The compounds were aspirated from the wells and incubated with FLIPR buffer (Hank's BSS 1×, 20 mM HEPES, 1% BSA) containing […] BCECF-AM (Invitrogen) for 45 minutes at room temperature. Subsequently, […] of 200 mM NH4Cl-HEPES buffer (Hank's BSS 1×, 20 mM HEPES, 200 mM NH4Cl) was added and incubated for 15-20 minutes at room temperature. The cells were washed twice with 20 mM NH4Cl-HEPES buffer (Hank's BSS 1×, 20 mM HEPES, 20 mM […]). […] Ratio=fluorescence value (λex 490 nm)/fluorescence value (λex 440 nm) was set, the average value of the Ratio difference between the end time and the start time between the duplicate wells was calculated, the average value and the concentration value of the compound were drawn, and the dose-response-inhibition (four parameters) equation was used to estimate EC50 value by GraphpadPrism.
SMILES,IC50 (NHE3 [1]; embodiment compounds) [µM],IC50 (NHE3 [2]) [µM],IC50 (NHE3 [1]; intermediates) [µM]
CN1Cc2c(Cl)cc(Cl)cc2C(c2ccc3c(c2)S(=O)(=O)N(CCOCCOCCNC(=O)NCCCCNC(=O)NCCOCCOCCN2Cc4ccc(C5CN(C)Cc6c(Cl)cc(Cl)cc65)cc4S2(=O)=O)C3)C1 (stereo not shown) [Embodiment A1],0.43,0.5,
CN1Cc2c(Cl)cc(Cl)cc2C(c2cccc3c2CN(CCOCCOCCNC(=O)NCCCCNC(=O)NCCOCCOCCN2Cc4c(C5CN(C)Cc6c(Cl)cc(Cl)cc65)cccc4S2(=O)=O)S3(=O)=O)C1 (stereo not shown) [Embodiment A2],3.14,,
CN1Cc2c(Cl)cc(Cl)cc2C(c2ccc3c(c2)C(=O)N(CCOCCOCCNC(=O)NCCCCNC(=O)NCCOCCOCCN2Cc4ccc(C5CN(C)Cc6c(Cl)cc(Cl)cc65)cc4C2=O)C3)C1 (stereo not shown) [Embodiment B1],0.52,0.02,
CN1Cc2c(Cl)cc(Cl)cc2C(c2cccc3c2CN(CCOCCOCCNC(=O)NCCCCNC(=O)NCCOCCOCCN2Cc4c(cccc4C4CN(C)Cc5c(Cl)cc(Cl)cc54)C2=O)C3=O)C1 (stereo not shown) [Embodiment B2],2.05,,
CN1Cc2c(Cl)cc(Cl)cc2C(c2ccc3c(c2)C(=O)N(CCOCCOCCNC(=O)NCCCCNC(=O)NCCOCCOCCN2CCc4ccc(C5CN(C)Cc6c(Cl)cc(Cl)cc65)cc4C2=O)CC3)C1 (stereo not shown) [Embodiment B3],0.77,0.41,
CN1Cc2c(Cl)cc(Cl)cc2C(c2ccc3c(c2)CN(CCOCCOCCNC(=O)NCCCCNC(=O)NCCOCCOCCN2Cc4cc(C5CN(C)Cc6c(Cl)cc(Cl)cc65)ccc4C2=O)C3=O)C1 (stereo not shown) [Embodiment B4],0.93,0.45,
CN1Cc2c(Cl)cc(Cl)cc2C(c2ccc3ccn(CCOCCOCCNC(=O)NCCCCNC(=O)NCCOCCOCCn4ccc5ccc(C6CN(C)Cc7c(Cl)cc(Cl)cc76)cc5c4=O)c(=O)c3c2)C1 (stereo not shown) [Embodiment B5],0.23,0.57,
CN1Cc2c(Cl)cc(Cl)cc2C(c2ccc3c(c2)C(=O)N(CCOCCOCCOCCNC(=O)NCCCCNC(=O)NCCOCCOCCCN2Cc4ccc(C5CCCc6ccc(Cl)cc65)cc4C2=O)C3)C1 (stereo not shown) [Embodiment B6],1.05,0.04,
CN1Cc2c(Cl)cc(Cl)cc2C(c2ccc3c(c2)S(=O)(=O)N(CCOCCOCCNC(=O)NCCCCNC(=O)NCCOCCOCCN2CCc4ccc(C5CN(C)Cc6c(Cl)cc(Cl)cc65)cc4S2(=O)=O)CC3)C1 (stereo not shown) [Embodiment C1],0.22,0.59,
CN1Cc2c(Cl)cc(Cl)cc2C(c2ccc3cn(CCOCCOCCNC(=O)NCCCCNC(=O)NCCOCCOCCn4cc5ccc(C6CN(C)Cc7c(Cl)cc(Cl)cc76)cc5n4)nc3c2)C1 (stereo not shown) [Embodiment D1-P1],0.28,0.02,
CN1Cc2c(Cl)cc(Cl)cc2C(c2ccc3cnn(CCOCCOCCNC(=O)NCCCCNC(=O)NCCOCCOCCn4ncc5ccc(C6CN(C)Cc7c(Cl)cc(Cl)cc76)cc54)c3c2)C1 (stereo not shown) [Embodiment D1-P2],2.33,3.61,
CN1Cc2c(Cl)cc(Cl)cc2C(c2ccc3cnn(CCOCCOCCOCCNC(=O)NCCCCNC(=O)NCCOCCOCCOCCn4ncc5ccc(C6CN(C)Cc7c(Cl)cc(Cl)cc76)cc54)c3c2)C1 (stereo not shown) [Embodiment D2-P2 hydrochloride salt],0.27,0.12,
CN1Cc2c(Cl)cc(Cl)cc2C(c2ccc3c(c2)S(=O)(=O)N(CCOCCOCCNC(=O)NCCCCNC(=O)NCCOCCOCCN2C=Cc4ccc(C5CN(C)Cc6c(Cl)cc(Cl)cc65)cc4S2(=O)=O)C=C3)C1 (stereo not shown) [Embodiment E1],0.06,0.05,
CN1Cc2c(Cl)cc(Cl)cc2C(c2ccc3c(c2)C(=O)N(CCOCCOCCNC(=O)CN(CCN(CC(=O)O)CC(=O)NCCOCCOCCN2Cc4ccc(C5CN(C)Cc6c(Cl)cc(Cl)cc65)cc4C2=O)CC(=O)O)C3)C1 (stereo not shown) [Embodiment F1],0.91,0.64,
CN1Cc2c(Cl)cc(Cl)cc2C(c2ccc3c(c2)C(=O)N(CCOCCOCCOCCNC(=O)CN(CCN(CC(=O)O)CC(=O)NCCOCCOCCOCCN2Cc4ccc(C5CN(C)Cc6c(Cl)cc(Cl)cc65)cc4C2=O)CC(=O)O)C3)C1 (stereo not shown) [Embodiment F2],0.62,0.08,
CN1Cc2c(Cl)cc(Cl)cc2C(c2ccc3c(c2)C(=O)N(CCOCCOCCNC(=O)O[C@@H]2COC4C2OC[C@H]4OC(=O)NCCOCCOCCN2Cc4ccc(C5CN(C)Cc6c(Cl)cc(Cl)cc65)cc4C2=O)C3)C1 (stereo partly shown) [Embodiment G1],0.93,0.1,
CN1Cc2c(Cl)cc(Cl)cc2C(c2ccc3c(c2)C(=O)N(CCOCCOCCNC(=O)NC2CCC(NC(=O)NCCOCCOCCN4Cc5ccc(C6CN(C)Cc7c(Cl)cc(Cl)cc76)cc5C4=O)CC2)C3)C1 (stereo not shown) [Embodiment H1],0.91,0.04,
CN1Cc2c(Cl)cc(Cl)cc2C(c2ccc3c(c2)C(=O)N(CCOCCOCCNC(=O)Nc2ccc(NC(=O)NCCOCCOCCN4Cc5ccc(C6CN(C)Cc7c(Cl)cc(Cl)cc76)cc5C4=O)cc2)C3)C1 (stereo not shown) [Embodiment H2],0.48,0.06,
CN1Cc2c(Cl)cc(Cl)cc2C(c2ccc3c(c2)S(=O)(=O)NC3)C1 (stereo not shown) [Intermediate A1-13],,,0.6
CN1Cc2c(Cl)cc(Cl)cc2C(c2cccc3c2CNS3(=O)=O)C1 (stereo not shown) [Intermediate A2-13],,,1.63
CN1Cc2c(Cl)cc(Cl)cc2C(c2ccc3c(c2)C(=O)NC3)C1 (stereo not shown) [Intermediate B1-6],,,0.53
CN1Cc2c(Cl)cc(Cl)cc2C(c2cccc3c2CNC3=O)C1 (stereo not shown) [Intermediate B2-6],,,0.17
CN1Cc2c(Cl)cc(Cl)cc2C(c2ccc3c(c2)CNC3=O)C1 (stereo not shown) [Intermediate B4-6],,,0.79
CN1Cc2c(Cl)cc(Cl)cc2C(c2ccc3cc[nH]c(=O)c3c2)C1 (stereo not shown) [Intermediate B5-6],,,1.69
CN1Cc2c(Cl)cc(Cl)cc2C(c2ccc3c(c2)S(=O)(=O)NCC3)C1 (stereo not shown) [Intermediate C1-11],,,1.24
CN1Cc2c(Cl)cc(Cl)cc2C(c2ccc3cn[nH]c3c2)C1 (stereo not shown) [Intermediate D1-7],,,1.44
CN1Cc2c(Cl)cc(Cl)cc2C(c2ccc3c(c2)S(=O)(=O)NC=C3)C1 (stereo not shown) [Intermediate E1-9],,,3.17
